Results as given in patent publication US7491819B1 (priority 2004, dated 2009).

molecular target: T1, HIV-integrase (Human immunodeficiency virus type 1 group M subtype B, UniProt P12497); assay: HIV-Integrase Inhibition Activity (SPA bead strand-transfer assay); assay type: biochemical; conditions: Table 1; read-out: Activity (HIV-integrase inhibition, IC50 class)
T1 construct: Recombinant integrase (0.26 ng) was incubated with the beads
Protocol: HIV-Integrase Inhibition Activity. To evaluate in-vitro activity against HIV-integrase, 5 pmole of biotin labeled substrate DNA was bound to 100 μg of Streptavidin coated PVT SPA beads (Amersham Pharmacia Biotech). Recombinant integrase (0.26 ng) was incubated with the beads for 90 min at 37° C. Unbound enzyme was removed by washing the complex followed by addition of inhibitors and 0.1 fmol of P33 labeled target DNA. The reaction was stopped by adding EDTA to a final concentration of 10 mM. Samples were counted in TopCountNXT (Packard) and the CPM was used as a measure of integration. The reaction condition was as described in A. Engelman and R. Craigie, J. Virol 69, 5908-5911 (1995). The sequences of substrate and target DNA were described in Nucleic Acid Research 22, 1121-1122 (1994).

Structure (SMILES)	IC50
CN(C)C(=O)c1cccc(-c2ccccc2CNC(=O)c2nc3n(c(=O)c2O)CCOC3(C)C)c1 [Example 171]	2 to 100 nM
Cc1ccc(F)c(CNC(=O)c2nc3n(c(=O)c2O)CCOC3(C)C)c1Cl [Example 278, Pyrimido[2,1-c][1,4]oxazine-2-carboxamide, N-[(2-chloro-6-fluoro-3-methylphenyl)methyl]-4,6,7,9-tetrahydro-3-hydroxy-9,9-dimethyl-4-oxo-]	2 to 100 nM
COc1cc(F)ccc1CNC(=O)c1nc2n(c(=O)c1O)CCOC2(C)C [Example 41, Pyrimido[2,1-c][1,4]oxazine-2-carboxamide, N-[(4-fluoro-2-methoxyphenyl)methyl]-4,6,7,9-tetrahydro-3-hydroxy-9,9-dimethyl-4-oxo-]	2 to 100 nM
CC1(C)OCCn2c1nc(C(=O)NCc1cccc3c1S(=O)(=O)C=C3)c(O)c2=O [Example 139, Pyrimido[2,1-c][1,4]oxazine-2-carboxamide, N-[(1,1-dioxidobenzo[b]thien-7-yl)methyl]-4,6,7,9-tetrahydro-3-hydroxy-9,9-dimethyl-4-oxo-]	2 to 100 nM
COc1cc(CNC(=O)c2nc3n(c(=O)c2O)CCOC3(C)C)ccc1F [Example 245, Pyrimido[2,1-c][1,4]oxazine-2-carboxamide, N-[(4-fluoro-3-methoxyphenyl)methyl]-4,6,7,9-tetrahydro-3-hydroxy-9,9-dimethyl-4-oxo-]	2 to 100 nM
CCOc1ccccc1CNC(=O)c1nc2n(c(=O)c1O)CCOC2(C)C [Example 243, Pyrimido[2,1-c][1,4]oxazine-2-carboxamide, N-[(2-ethoxyphenyl)methyl]-4,6,7,9-tetrahydro-3-hydroxy-9,9-dimethyl-4-oxo-]	2 to 100 nM
CC1(C)OCCn2c1nc(C(=O)NCc1ccccc1S(C)(=O)=O)c(O)c2=O [Example 114, Pyrimido[2,1-c][1,4]oxazine-2-carboxamide, 4,6,7,9-tetrahydro-3-hydroxy-9,9-dimethyl-N-[[2-(methylsulfonyl)phenyl]methyl]-4-oxo-]	2 to 100 nM
CS(=N)c1cc(F)ccc1CNC(=O)c1nc2n(c(=O)c1O)CCOC2(C)C (centres unmarked) [Example 103, Pyrimido[2,1-c][1,4]oxazine-2-carboxamide, N-[[4-fluoro-2-(S-methylsulfinimidoyl)phenyl]methyl]-4,6,7,9-tetrahydro-3-hydroxy-9,9-dimethyl-4-oxo-]	2 to 100 nM
Cc1cccc(CNC(=O)c2nc3n(c(=O)c2O)CCOC3(C)C)c1 [Example 223, Pyrimido[2,1-c][1,4]oxazine-2-carboxamide, 4,6,7,9-tetrahydro-3-hydroxy-9,9-dimethyl-N-[(3-methylphenyl)methyl]-4-oxo-]	2 to 100 nM
CC1(C)OCCn2c1nc(C(=O)NCc1ccc(F)cc1N1CCCCC1=O)c(O)c2=O [Example 121, Pyrimido[2,1-c][1,4]oxazine-2-carboxamide, N-[[4-fluoro-2-(2-oxo-1-piperidinyl)phenyl]methyl]-4,6,7,9-tetrahydro-3-hydroxy-9,9-dimethyl-4-oxo-]	2 to 100 nM
CN(C)C[C@H]1CCC(=O)N1c1cc(F)ccc1CNC(=O)c1nc2n(c(=O)c1O)CCOC2(C)C [Example 131, (R)—N-(2-(2-((Dimethylamino)methyl)-5-oxopyrrolidin-1-yl)-4-fluorobenzyl)-3-hydroxy-9,9-dimethyl-4-oxo-4,6,7,9-tetrahydropyrimido[2,1-c][1,4]oxazine-2-carboxamide]	100 to 1000 nM
CN(C)CC#Cc1cc(F)ccc1CNC(=O)c1nc2n(c(=O)c1O)CCOC2(C)C [Example 91, Pyrimido[2,1-c][1,4]oxazine-2-carboxamide, N-[[2-[3-(dimethylamino)-1-propynyl]-4-fluorophenyl]methyl]-4,6,7,9-tetrahydro-3-hydroxy-9,9-dimethyl-4-oxo-]	2 to 100 nM
CCC1OCCn2c1nc(C(=O)NCc1ccc(Cl)c(Cl)c1)c(O)c2=O (centres unmarked) [Example 12, Pyrimido[2,1-c][1,4]oxazine-2-carboxamide, N-[(3,4-dichlorophenyl)methyl]-9-ethyl-4,6,7,9-tetrahydro-3-hydroxy-4-oxo-]	2 to 100 nM
CC1(C)OCCn2c1nc(C(=O)NCc1cccc(C3(C(F)(F)F)N=N3)c1)c(O)c2=O [Example 105, Pyrimido[2,1-c][1,4]oxazine-2-carboxamide, 4,6,7,9-tetrahydro-3-hydroxy-9,9-dimethyl-4-oxo-N-[[3-[3-(trifluoromethyl)-3H-diazirin-3-yl]-phenyl]methyl]-]	2 to 100 nM
COc1cc(Cl)ccc1-c1ccccc1CNC(=O)c1nc2n(c(=O)c1O)CCOC2(C)C [Example 161, Pyrimido[2,1-c][1,4]oxazine-2-carboxamide, N-[(4′-chloro-2′-methoxy[1,1′-biphenyl]-2-yl)methyl]-4,6,7,9-tetrahydro-3-hydroxy-9,9-dimethyl-4-oxo-]	2 to 100 nM
CC1(C)OCCn2c1nc(C(=O)NCc1cccc3c1OCCCO3)c(O)c2=O [Example 268, Pyrimido[2,1-c][1,4]oxazine-2-carboxamide, N-[(3,4-dihydro-2H-1,5-benzodioxepin-6-yl)methyl]-4,6,7,9-tetrahydro-3-hydroxy-9,9-dimethyl-4-oxo-]	2 to 100 nM
CC1(C)OCCn2c1nc(C(=O)NCc1ccccc1-c1ccsc1)c(O)c2=O [Example 179, Pyrimido[2,1-c][1,4]oxazine-2-carboxamide, 4,6,7,9-tetrahydro-3-hydroxy-9,9-dimethyl-4-oxo-N-[[2-(3-thienyl)phenyl]methyl]-]	2 to 100 nM
CC1(C)OCCn2c1nc(C(=O)NCc1ccccc1N1CCC1=O)c(O)c2=O [Example 123, Pyrimido[2,1-c][1, 4]oxazine-2-carboxamide, 4,6,7,9-tetrahydro-3-hydroxy-9,9-dimethyl-4-oxo-N-[[2-(2-oxo-1-azetidinyl)phenyl]methyl]-]	2 to 100 nM
CC1(C)OCCn2c1nc(C(=O)NCc1ccc(F)cc1-n1cncn1)c(O)c2=O [Example 21, Pyrimido[2,1-c][1,4]oxazine-2-carboxamide, N-[[4-fluoro-2-(1H-1,2,4-triazol-1-yl)phenyl]methyl]-4,6,7,9-tetrahydro-3-hydroxy-9,9-dimethyl-4-oxo-]	2 to 100 nM
Cc1ccc(CNC(=O)c2nc3n(c(=O)c2O)CCOC3(C)C)c(F)c1F [Example 276, Pyrimido[2,1-c][1, 4]oxazine-2-carboxamide, N-[(2,3-difluoro-4-methylphenyl)methyl]-4,6,7,9-tetrahydro-3-hydroxy-9,9-dimethyl-4-oxo-]	2 to 100 nM
CC1(C)OCCn2c1nc(C(=O)NCc1ccc(F)cc1N1C(=O)CC[C@@H]1CN)c(O)c2=O [Example 133, (R)—N-(2-(2-(Aminomethyl)-5-oxopyrrolidin-1-yl)-4-fluorobenzyl)-3-hydroxy-9,9-dimethyl-4-oxo-4,6,7,9-tetrahydropyrimido[2,1-c][1,4]oxazine-2-carboxamide]	100 to 1000 nM
CC1(C)OCCn2c1nc(C(=O)NCc1ccc(F)cc1-n1cnc(C(=O)NS(=O)(=O)c3ccc(F)cc3)n1)c(O)c2=O [Example 68, Pyrimido[2,1-c][1,4]oxazine-2-carboxamide, N-[[4-fluoro-2-[3-[[[(4-fluorophenyl)sulfonyl]amino]carbonyl]-1H-1,2,4-triazol-1-yl]phenyl]methyl]-4,6,7,9-tetrahydro-3-hydroxy-9,9-dimethyl-4-oxo-]	2 to 100 nM
CCNc1cc(F)ccc1CNC(=O)c1nc2n(c(=O)c1O)CCOC2(C)C [Example 87, Pyrimido[2,1-c][1,4]oxazine-2-carboxamide, N-[[2-(ethylamino)-4-fluorophenyl]methyl]-4,6,7,9-tetrahydro-3-hydroxy-9,9-dimethyl-4-oxo-]	2 to 100 nM
Cc1cc(F)ccc1CNC(=O)c1nc2n(c(=O)c1O)CCOC2(C)C [Example 39, Pyrimido[2,1-c][1,4]oxazine-2-carboxamide, N-[(4-fluoro-2-methylphenyl)methyl]-4,6,7,9-tetrahydro-3-hydroxy-9,9-dimethyl-4-oxo-]	2 to 100 nM
CNS(=O)(=O)c1cc(F)ccc1CNC(=O)c1nc2n(c(=O)c1O)CCOC2(C)C [Example 109, Pyrimido[2,1-c][1,4]oxazine-2-carboxamide, N-[[4-fluoro-2-[(methylamino)sulfonyl]phenyl]methyl]-4,6,7,9-tetrahydro-3-hydroxy-9,9-dimethyl-4-oxo-]	2 to 100 nM
CC(C)Oc1ccccc1CNC(=O)c1nc2n(c(=O)c1O)CCOC2(C)C [Example 262, Pyrimido[2,1-c][1,4]oxazine-2-carboxamide, 4,6,7,9-tetrahydro-3-hydroxy-9,9-dimethyl-N-[[2-(1-methylethoxy)phenyl]methyl]-4-oxo-]	2 to 100 nM
CC1(C)OCCn2c1nc(C(=O)NCCCc1ccc(F)cc1)c(O)c2=O [Example 26, Pyrimido[2,1-c][1,4]oxazine-2-carboxamide, N-[3-(4-fluorophenyl)propyl]-4,6,7,9-tetrahydro-3-hydroxy-9,9-dimethyl-4-oxo-]	2 to 100 nM
CC1(C)OCCn2c1nc(C(=O)NCc1cc(F)ccc1F)c(O)c2=O [Example 224, Pyrimido[2,1-c][1,4]oxazine-2-carboxamide, N-[(2,5-difluorophenyl)methyl]-4,6,7,9-tetrahydro-3-hydroxy-9,9-dimethyl-4-oxo-]	2 to 100 nM
CC1(C)OCCCn2c1nc(C(=O)NCc1ccccc1N1CCCCS1(=O)=O)c(O)c2=O [Example 206, 6H-pyrimido[2,1-c][1,4]oxazepine-2-carboxamide, 4,7,8,10-tetrahydro-3-hydroxy-10,10-dimethyl-4-oxo-N-[[2-(tetrahydro-1,1-dioxido-2H-1,2-thiazin-2-yl)phenyl]methyl]-]	2 to 100 nM
